Assay results published in patent US20240025906A1 (NEURON23, INC., priority 2022, published 2024).

How the values were obtained:
TYK2 JH2 = target: T1, TYK2 JH2 (Homo sapiens, UniProt P29597); test: TYK2 JH2 binding assay (KINOMEscan KdELECT competitive binding); settings: TYK2 JH2 domain, DiscoverX KINOMEscan KdELECT (Assay A); read-out: Biochemical TYK2_DiscoverX_JH2_BND_Kd
T1 construct: purchased DiscoverX (KINOMEscan KdELECT service); host or cells: E. coli BL21-derived (T7 phage display) or HEK-293
Method in brief: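 Test compounds were titrated in 11 three-fold steps against JH2 fragment captured on ligand-loaded magnetic beads, with 1 h incubation at room temperature and DMSO at 0.9%. Eluted kinase was quantified by qPCR, and Kd was fitted from the dose series.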

[1] = test system: JAK1/TYK2 pSTAT5 (Tyr694/699) in THP-1 cell line; test: IFNa-stimulated JAK1/TYK2 pSTAT5 (Tyr694/699) inhibition cellular assay, AlphaLISA; assay type: cell-based; settings: Homo sapiens; THP-1 cells, IFNa-stimulated, AlphaLISA (Assay B); read-out: Cellular_THP1_IFNa-pSTATS_TYK2
Method in brief: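 pSTAT5 (Tyr694/699) in lysates quantified by AlphaLISA (615 nm) after 30 min IFNa stimulation (100 ng/mL stock) of THP-1 cells. The cells, 2e4 per well in HBSS, had first been exposed 1 h at 37° C. to eight 6-fold compound dilutions, 10000 down to 0.04 nM final. IC50 fitted by 4PL regression, bottom 0, Hill slope −1.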

T1 sequence (P29597 589-875 limits assumed): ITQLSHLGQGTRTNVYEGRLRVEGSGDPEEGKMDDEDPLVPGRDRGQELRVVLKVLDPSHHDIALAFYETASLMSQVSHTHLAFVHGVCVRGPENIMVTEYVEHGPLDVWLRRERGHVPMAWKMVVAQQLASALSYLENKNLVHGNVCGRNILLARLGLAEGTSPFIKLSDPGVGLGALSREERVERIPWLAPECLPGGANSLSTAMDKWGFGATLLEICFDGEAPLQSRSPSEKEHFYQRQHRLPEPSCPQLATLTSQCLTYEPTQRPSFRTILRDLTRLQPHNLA

Compound	Kd (TYK2 JH2)	IC50 [1]
CNc1ncc(-c2nc3ccc(N4CC(OC)C4)cc3o2)c2cc(NC(=O)C3CC3)ncc12 [Example 274, N-(5-(6-(3-methoxyazetidin-1-yl)benzo[d]oxazol-2-yl)-8-(methylamino)-2,7-naphthyridin-3-yl)cyclopropanecarboxamide]	≤ 100 nM	≤ 500 nM
CNc1ncc(-c2nc3ccc(N4CCO[C@@H](C)C4)cc3o2)c2cc(NC(=O)C3CC3)ncc12 [Example 275, (S)—N-(8-(methylamino)-5-(6-(2-methylmorpholino)benzo[d]oxazol-2-yl)-2,7-naphthyridin-3-yl)cyclopropanecarboxamide]	≤ 100 nM	≤ 500 nM
CNc1ncc(-c2nc3ccc(N4CCO[C@H](C)C4)cc3o2)c2cc(NC(=O)C3CC3)ncc12 [Example 276, (R)—N-(8-(methylamino)-5-(6-(2-methylmorpholino)benzo[d]oxazol-2-yl)-2,7-naphthyridin-3-yl)cyclopropanecarboxamide]	≤ 100 nM	≤ 500 nM
CNc1ncc(-c2nc3cc(N4CCC4)ccc3o2)c2cc(NC(=O)C3CC3)ncc12 [Example 277, N-(5-(5-(azetidin-1-yl)benzo[d]oxazol-2-yl)-8-(methylamino)-2,7-naphthyridin-3-yl)cyclopropanecarboxamide]	≤ 100 nM	≤ 500 nM
CNc1ncc(-c2nc3cc(N4CCC4COC)ccc3o2)c2cc(NC(=O)C3CC3)ncc12 (centres unmarked) [Example 278, N-(5-(5-(2-(methoxymethyl)azetidin-1-yl)benzo[d]oxazol-2-y1)-8-(methylamino)-2,7-naphthyridin-3-yl)cyclopropanecarboxamide]	≤ 100 nM	≤ 500 nM
CNc1ncc(-c2nc3cc(N4CC(F)(F)C4)ccc3o2)c2cc(NC(=O)C3CC3)ncc12 [Example 279, N-(5-(5-(3,3-difluoroazetidin-1-yl)benzo[d]oxazol-2-yl)-8-(methylamino)-2,7-naphthyridin-3-yl)cyclopropanecarboxamide]	≤ 100 nM	≤ 500 nM
CNc1ncc(-c2nc3cc(N4CC(OC)C4)ccc3o2)c2cc(NC(=O)C3CC3)ncc12 [Example 280, N-(5-(5-(3-methoxyazetidin-1-yl)benzo[d]oxazol-2-y1)-8-(methylamino)-2,7-naphthyridin-3-yl)cyclopropanecarboxamide]	≤ 100 nM	≤ 500 nM
CNc1ncc(-c2nc3cc(N4CC[C@@H](OC)C4)ccc3o2)c2cc(NC(=O)C3CC3)ncc12 [Example 281, (R)-N-(5-(5-(3-methoxypyrrolidin-1-yl)benzo[d]oxazol-2-y1)-8-(methylamino)-2,7-naphthyridin-3-yl)cyclopropanecarboxamide]	≤ 100 nM	≤ 500 nM
CNc1ncc(-c2nc3cc(N4CC[C@H](OC)C4)ccc3o2)c2cc(NC(=O)C3CC3)ncc12 [Example 282, (S)-N-(5-(5-(3-methoxypyrrolidin-1-yl)benzo[d]oxazol-2-y1)-8-(methylamino)-2,7-naphthyridin-3-yl)cyclopropanecarboxamide]	≤ 100 nM	≤ 500 nM
CNc1ncc(-c2nc3cc(N4CC(O)C4)ccc3o2)c2cc(NC(=O)C3CC3)ncc12 [Example 283, N-(5-(5-(3-hydroxyazetidin-1-yl)benzo[d]oxazol-2-y1)-8-(methylamino)-2,7-naphthyridin-3-yl)cyclopropanecarboxamide]	≤ 100 nM	≤ 500 nM
CNc1ncc(-c2nc3cc(N4CC(F)C4)ccc3o2)c2cc(NC(=O)C3CC3)ncc12 [Example 284, N-(5-(5-(3-fluoroazetidin~1-yl)benzo[d]oxazol-2-y1)-8-(methylamino)-2,7-naphthyridin-3-yl)cyclopropanecarboxamide]	≤ 100 nM	≤ 500 nM
CNc1ncc(-c2nc3cc(N4CC5COCC(C5)C4)ccc3o2)c2cc(NC(=O)C3CC3)ncc12 [Example 285, N-(5-(5-(3-oxa~7-azabicyclo[3.3.1]nonan-7-yl)benzo[d]oxazol-2-yl)-8-(methylamino)-2,7-naphthyridin-3-yl)cyclopropanecarboxamide]	≤ 100 nM	≤ 500 nM
CNc1ncc(-c2nc3cc(N4CC(C)(OC)C4)ccc3o2)c2cc(NC(=O)C3CC3)ncc12 [Example 286, N-(5-(5-(3-methoxy-3-methylazetidin-1-yl)benzo[d]oxazol-2-yl)-8-(methylamino)-2,7-naphthyridin-3-yl)cyclopropanecarboxamide]	≤ 100 nM	≤ 500 nM
CNc1ncc(-c2nc3cc(N4CC(N(C)C)C4)ccc3o2)c2cc(NC(=O)C3CC3)ncc12 [Example 287, N-(5-(5-(3-(dimethylamino)azetidin-1-yl)benzo[d]oxazol-2-y1)-8-(methylamino)-2,7-naphthyridin-3-yl)cyclopropanecarboxamide]	≤ 100 nM	≤ 500 nM
CNc1ncc(-c2nc3cc(N4CC(C)(C)C4)ccc3o2)c2cc(NC(=O)C3CC3)ncc12 [Example 288, N-(5-(5-(3,3-dimethylazetidin-1-yl)benzo[d]oxazol-2-y1)-8-(methylamino)-2,7-naphthyridin-3-yl)cyclopropanecarboxamide]	≤ 100 nM	≤ 500 nM
CNc1ncc(-c2nc3cc(N4CCO[C@@H](C)C4)ccc3o2)c2cc(NC(=O)C3CC3)ncc12 [Example 289, (S)—N-(8-(methylamino)-5-(5-(2-methylmorpholino)benzo[d]oxazol-2-yl)-2,7-naphthyridin-3-yl)cyclopropanecarboxamide]	≤ 100 nM	≤ 500 nM
CNc1ncc(-c2nc3cc(N4CCC[C@@H](OC)C4)ccc3o2)c2cc(NC(=O)C3CC3)ncc12 [Example 290, (R)-N-(5-(5-(3-methoxypiperidin-1-yl)benzo[d]oxazol-2-yl)-8-(methylamino)-2,7-naphthyridin-3-yl)cyclopropanecarboxamide]	≤ 100 nM	≤ 500 nM
CNc1ncc(-c2nc3cc(N4CCC[C@H](OC)C4)ccc3o2)c2cc(NC(=O)C3CC3)ncc12 [Example 291, (S)-N-(5-(5-(3-methoxypiperidin-1-yl)benzo[d]oxazol-2-y1)-8-(methylamino)-2,7-naphthyridin-3-yl)cyclopropanecarboxamide]	≤ 100 nM	≤ 500 nM
CNc1ncc(-c2nc3cc(N4CCC[C@@H](C#N)C4)ccc3o2)c2cc(NC(=O)C3CC3)ncc12 [Example 292, (R)-N-(5-(5-(3-cyanopiperidin-1-yl)benzo[d]oxazol-2-y1)-8-(methylamino)-2,7-naphthyridin-3-yl)cyclopropanecarboxamide]	≤ 100 nM	≤ 500 nM
CNc1ncc(-c2nc3cc(N4CCC[C@H](C#N)C4)ccc3o2)c2cc(NC(=O)C3CC3)ncc12 [Example 293]	≤ 100 nM	≤ 500 nM
CNc1ncc(-c2nc3cc(NCCOC)ccc3o2)c2cc(NC(=O)C3CC3)ncc12 [Example 294, N-(5-(5-((2-methoxyethyl)amino)benzo[d]oxazol-2-yl)-8-(methylamino)-2,7-naphthyridin-3-yl)cyclopropanecarboxamide]	≤ 100 nM	≤ 500 nM
CNc1ncc(-c2nc3cc(NC(C)=O)ccc3o2)c2cc(NC(=O)C3CC3)ncc12 [Example 295, N-(5-(5-acetamidobenzo[d]oxazol-2-yl)-8-(methylamino)-2,7-naphthyridin-3-yl)cyclopropanecarboxamide]	≤ 100 nM	≤ 500 nM
CNc1ncc(-c2nc3cc(N4CC5(COC5)C4)ccc3o2)c2cc(NC(=O)C3CC3)ncc12 [Example 296, N-(5-(5-(2-oxa-6-azaspiro[3.3]heptan-6-yl)benzo[d]oxazol-2-y1)-8-(methylamino)-2,7-naphthyridin-3-yl)cyclopropanecarboxamide]	≤ 100 nM	≤ 500 nM
CNc1ncc(-c2nc3cc(N(C)C(C)=O)ccc3o2)c2cc(NC(=O)C3CC3)ncc12 [Example 297, N-(5-(5-(N-methylacetamido)benzo[d]oxazol-2-yl)-8-(methylamino)-2,7-naphthyridin-3-y1)cyclopropanecarboxamide]	≤ 100 nM	≤ 500 nM
CNc1ncc(-c2nc3cc(N4C[C@@H]5C[C@H]4CO5)ccc3o2)c2cc(NC(=O)C3CC3)ncc12 [Example 298, N-(5-(5-((15,4S)-2-oxa-5-azabicyclo[2.2.1]heptan-5-yl)benzo[d]oxazol-2-y1)-8-(methylamino)-2,7-naphthyridin-3-yl)cyclopropanecarboxamide]	≤ 100 nM	≤ 500 nM
CNc1ncc(-c2nc3cc(N4C[C@H]5C[C@@H]4CO5)ccc3o2)c2cc(NC(=O)C3CC3)ncc12 [Example 299, N-(5-(5-((1R,4R)-2-oxa-5-azabicyclo[2.2.1]heptan-5-yl)benzo[d]oxazol-2-y1)-8-(methylamino)-2,7-naphthyridin-3-yl)cyclopropanecarboxamide]	≤ 100 nM	≤ 500 nM
CNc1ncc(-c2nc3cc(N4CC5(CN(C)C5)C4)ccc3o2)c2cc(NC(=O)C3CC3)ncc12 [Example 300, N-(5-(5-(6-methyl-2,6-diazaspiro[3.3]heptan-2-yl)benzo[d]oxazol-2-yl)-8-(methylamino)-2,7-naphthyridin-3-yl)cyclopropanecarboxamide]	≤ 100 nM	≤ 500 nM
CNc1ncc(-c2nc3cc(N4CCC(F)(F)CC4)ccc3o2)c2cc(NC(=O)C3CC3)ncc12 [Example 301, N-(5-(5-(4,4-difluoropiperidin-1-yl)benzo[d]oxazol-2-y1)-8-(methylamino)-2,7-naphthyridin-3-yl)cyclopropanecarboxamide]	≤ 100 nM	≤ 500 nM
